Data as given in patent US6835551B2, “Basophil degranulation test” (Orpegen Pharma GmbH, priority 1999, dated 2004).

Test system: basophilic granulocytes
Settings: fMLP 10^-7 M, 30 minutes at 37° C., typical values
Procedure: Peripheral blood (heparinised) of the patient is incubated with various concentrations of the suspected allergen at 37° C. […] The detection is carried out by a three colour immunofluorescence and flow cytometric analysis. The chemotactic peptide fMLP serves as a positive control and a buffer solution (PBS) is used as the negative control.
The sample to be examined is divided into aliquots of 100 μl in each case. In the case of high leukocyte numbers (WBC of 10-20,000 C/μl) it is possible to use a smaller sample volume e.g. 50 μl. Multiple test mixtures are not necessary.
ALK-depot SQ (Scherax) mixture of 6 grasses+rye is used at concentrations of 10,000, 1,000, 100 and 10 U/ml. ALK-prick SQ (Scherax) bee venom and ALK-prick SQ (Scherax) wasp venom are used at concentrations of 10, 1, 0.1 and 0.01 μg/ml. Latex allergens, PPL (allergopen) and MDM (allergopen) are used in dilutions of 1:10, 1:100 and 1:1,000. Penicillin Grünenthal is used at concentrations of 100, 10, 1 and 0.1 μg/ml. PBS serves as a negative control and fMLP at a concentration of 10^−7 M (i.e. 1:2,000 PBS) is used as the positive control. A sample from a healthy normal test person is also assayed as a further control.
100 μl of each of the allergen dilutions is added to an aliquot of the sample, mixed and incubated for 30 minutes at 37° C. in a water bath. Then the mixtures are placed on ice.
The following antibody solutions are then added.
a) 20 μl anti gp55-FITC (prediluted)
b) 20 μl anti IgE-PE (prediluted)
c) 10 μl anti CD45-cychrome or 20 μl CD45-PerCP
After antibody addition it is well mixed (vortex) and incubated for 20 minutes on ice while protected from light.
2 ml FACS lysing solution (erythrocyte lysis and leukocyte fixation) is then added, it is mixed (vortex) and incubated for 10 minutes at room temperature while protected from light. Subsequently it is centrifuged for 5 min at 1300 rpm or 300 g and decanted.
The cells are washed by adding 3 ml wash solution (PBS), centrifuging (5 min at 1300 rpm or 300 g) and decanting.
The sample is measured by flow cytometry for example on an FACS scan instrument. The stability of the measured sample is presumably ≧2 hours on flaked ice in the dark.
In the SSC/IgE dot plot, a region is set around the cells with low and high side scattered light and strong IgE expression. […] The markers are set such that the evaluation region covers the region of the gp55 positive basophils (the PBS test mixture serves as a negative control). The mean value FL1 is observed in all (also gp55-negative) cell populations. If possible, at least 1000 cells of the subclass of interest (in this case basophils) are recorded. […] It is therefore possible to view the percentage which is adequate for evaluating the test result.

fMLP
% basos (heparinised whole blood): 2.35% | mean gp55 (mean FL1 of all basophils): 369 | mean CD45 (mean fluorescence (CD45 expression density) of basophils): 349 | mean IgE (mean fluorescence (IgE density) of basophils): 981 | % gp55 (percentage of gp55-positive basophilic granulocytes): 30.6%
